Values of other authors in patent publication US8569304B2, “Active esters of N-substituted piperazine acetic acids, including isotopically enriched versions thereof” (DH Technologies Development Pte. Ltd., priority 2004, dated 2013).

Conditions: alcohol (leaving group) used to form the trifluoroacetate ester / active ester

pKa: 7.80
SMILES: O=C1CCC(=O)N1O [NHS, N-Hydroxysuccinimide]
